Like-named read-outs stand apart in the source and are kept apart here.
Legend:
Assay type in all cases: biochemical
CK1-γ1 = CK1-γ1 (Homo sapiens, UniProt Q9HCP0); experiment: Kinome profiling CK1-γ1; settings: read-out: Inhibitory activity CK1-γ1; for inhibition at 0.1 µM: 100 nM
Procedure: (§1) . The kinome-wide selectivity was determined following the methods previously reported by Mohedas et al., ACS Chem Biol 2013, 8, 1291-1302 and Sanvitale et al., PLoS One 2013, 8, e62721.

TBK1 = biological target: T1, TBK1 (Homo sapiens, UniProt Q9UHD2); experiment: Kinome profiling TBK1; settings: read-out: Inhibitory activity TBK1; for inhibition at 0.1 µM: 100 nM
T1 sequence (Q9UHD2 1-729): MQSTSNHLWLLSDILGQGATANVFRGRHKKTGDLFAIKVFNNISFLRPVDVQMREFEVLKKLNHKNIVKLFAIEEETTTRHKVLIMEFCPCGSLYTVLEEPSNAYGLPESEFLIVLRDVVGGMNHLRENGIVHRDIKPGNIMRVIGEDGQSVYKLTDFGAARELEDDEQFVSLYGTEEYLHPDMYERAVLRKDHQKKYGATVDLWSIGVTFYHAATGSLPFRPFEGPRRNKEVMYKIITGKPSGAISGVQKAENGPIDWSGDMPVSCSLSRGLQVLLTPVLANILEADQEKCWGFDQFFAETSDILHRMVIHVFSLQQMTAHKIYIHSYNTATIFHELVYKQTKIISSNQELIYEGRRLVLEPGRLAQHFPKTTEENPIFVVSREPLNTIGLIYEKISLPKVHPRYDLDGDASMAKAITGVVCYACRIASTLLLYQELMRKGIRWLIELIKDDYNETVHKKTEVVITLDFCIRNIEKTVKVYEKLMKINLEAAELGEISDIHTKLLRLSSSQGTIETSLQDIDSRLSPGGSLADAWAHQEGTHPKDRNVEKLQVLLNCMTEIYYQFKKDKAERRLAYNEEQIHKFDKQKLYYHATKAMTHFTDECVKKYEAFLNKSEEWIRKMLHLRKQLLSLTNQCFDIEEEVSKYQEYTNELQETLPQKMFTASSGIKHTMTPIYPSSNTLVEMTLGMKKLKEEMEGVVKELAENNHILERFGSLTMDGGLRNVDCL
Procedure: as §1

FES = FES (Homo sapiens, UniProt P07332); experiment: Kinome profiling FES; settings: read-out: Inhibitory activity FES; for inhibition at 0.1 µM: 100 nM
Procedure: as §1

P38δ = biological target: T2, P38δ (Homo sapiens, UniProt O15264); experiment: Kinome profiling P38δ; settings: read-out: Inhibitory activity P38δ; for inhibition at 0.1 µM: 100 nM
T2 sequence (O15264 1-365): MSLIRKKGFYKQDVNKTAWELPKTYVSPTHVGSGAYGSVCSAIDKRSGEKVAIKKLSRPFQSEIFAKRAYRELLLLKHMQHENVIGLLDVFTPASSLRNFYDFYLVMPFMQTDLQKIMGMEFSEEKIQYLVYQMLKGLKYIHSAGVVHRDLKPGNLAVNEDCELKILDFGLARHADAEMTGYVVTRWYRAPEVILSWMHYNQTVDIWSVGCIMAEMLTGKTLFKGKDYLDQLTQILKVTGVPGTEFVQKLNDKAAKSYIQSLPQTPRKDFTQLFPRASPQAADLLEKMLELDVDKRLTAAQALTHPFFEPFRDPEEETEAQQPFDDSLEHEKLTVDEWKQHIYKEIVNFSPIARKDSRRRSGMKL
Procedure: as §1

FYN = FYN (Homo sapiens, UniProt P06241); experiment: Kinome profiling FYN; settings: read-out: Inhibitory activity FYN; for inhibition at 0.1 µM: 100 nM
Procedure: as §1

PYK2 = PYK2 (Homo sapiens, UniProt Q14289); experiment: Kinome profiling PYK2; settings: read-out: Inhibitory activity PYK2; for inhibition at 0.1 µM: 100 nM
Procedure: as §1

SRC = SRC (Homo sapiens, UniProt P12931); experiment: Kinome profiling SRC; settings: read-out: Inhibitory activity SRC; for inhibition at 0.1 µM: 100 nM
Procedure: as §1

PKC-α = PKC-α (Homo sapiens, UniProt P17252); experiment: Kinome profiling PKC-α; settings: read-out: Inhibitory activity PKC-α; for inhibition at 0.1 µM: 100 nM
Procedure: as §1

PKC-β1 = PKC-β1 (Homo sapiens, UniProt P05771); experiment: Kinome profiling PKC-β1; settings: read-out: Inhibitory activity PKC-β1; for inhibition at 0.1 µM: 100 nM
Procedure: as §1

CAMK2α = CAMK2α (Homo sapiens, UniProt Q9UQM7); experiment: Kinome profiling CAMK2α; settings: read-out: Inhibitory activity CAMK2α; for inhibition at 0.1 µM: 100 nM
Procedure: as §1

CDK1/cyclinB = CDK1/cyclinB (Homo sapiens, UniProt P06493); experiment: Kinome profiling CDK1/cyclinB; settings: read-out: Inhibitory activity CDK1/cyclinB; for inhibition at 0.1 µM: 100 nM
Procedure: as §1

PIM-2 = PIM-2 (Homo sapiens, UniProt Q9P1W9); experiment: Kinome profiling PIM-2; settings: read-out: Inhibitory activity PIM-2; for inhibition at 0.1 µM: 100 nM
Procedure: as §1

ABL1 = ABL1 (Homo sapiens, UniProt P00519); experiment: Kinome profiling ABL1; settings: for inhibition at 0.1 µM: 100 nM
Procedure: as §1

[1] = Table 4, read-out: Inhibitory Activity ABL1
[2] = read-out: Inhibitory activity ABL1

Chain of FES (P07332 whole entry): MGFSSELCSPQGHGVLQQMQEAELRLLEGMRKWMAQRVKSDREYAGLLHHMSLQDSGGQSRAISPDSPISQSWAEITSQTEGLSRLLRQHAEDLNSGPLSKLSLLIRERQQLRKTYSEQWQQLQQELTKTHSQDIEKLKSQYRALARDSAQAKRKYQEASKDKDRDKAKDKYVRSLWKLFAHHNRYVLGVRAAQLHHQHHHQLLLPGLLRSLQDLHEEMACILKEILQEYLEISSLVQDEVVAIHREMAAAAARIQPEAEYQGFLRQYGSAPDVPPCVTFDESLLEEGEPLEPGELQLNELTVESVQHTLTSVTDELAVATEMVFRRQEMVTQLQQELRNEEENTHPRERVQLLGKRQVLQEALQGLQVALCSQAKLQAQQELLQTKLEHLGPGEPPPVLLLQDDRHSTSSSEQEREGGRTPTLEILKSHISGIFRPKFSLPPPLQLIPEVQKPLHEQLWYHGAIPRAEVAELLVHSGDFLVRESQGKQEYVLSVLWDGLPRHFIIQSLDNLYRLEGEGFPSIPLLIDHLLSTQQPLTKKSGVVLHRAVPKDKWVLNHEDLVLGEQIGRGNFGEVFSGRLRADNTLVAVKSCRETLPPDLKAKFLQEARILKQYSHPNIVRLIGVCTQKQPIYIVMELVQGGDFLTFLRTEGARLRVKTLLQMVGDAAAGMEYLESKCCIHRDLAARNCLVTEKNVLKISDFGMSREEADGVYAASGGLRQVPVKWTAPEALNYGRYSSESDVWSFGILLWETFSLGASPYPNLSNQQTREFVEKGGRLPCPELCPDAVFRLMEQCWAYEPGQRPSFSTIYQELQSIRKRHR
Chain of PIM-2 (Q9P1W9 whole entry): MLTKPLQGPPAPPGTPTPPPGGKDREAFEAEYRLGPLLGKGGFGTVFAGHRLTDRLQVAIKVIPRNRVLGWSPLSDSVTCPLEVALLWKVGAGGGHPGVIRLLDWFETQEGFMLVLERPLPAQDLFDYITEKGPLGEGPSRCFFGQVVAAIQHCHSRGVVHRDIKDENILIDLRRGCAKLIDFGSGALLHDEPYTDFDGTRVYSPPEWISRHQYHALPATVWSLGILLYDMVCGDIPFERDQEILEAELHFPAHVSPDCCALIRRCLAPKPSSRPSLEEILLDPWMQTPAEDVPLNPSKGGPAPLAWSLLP
Chain of CAMK2α (Q9UQM7 whole entry): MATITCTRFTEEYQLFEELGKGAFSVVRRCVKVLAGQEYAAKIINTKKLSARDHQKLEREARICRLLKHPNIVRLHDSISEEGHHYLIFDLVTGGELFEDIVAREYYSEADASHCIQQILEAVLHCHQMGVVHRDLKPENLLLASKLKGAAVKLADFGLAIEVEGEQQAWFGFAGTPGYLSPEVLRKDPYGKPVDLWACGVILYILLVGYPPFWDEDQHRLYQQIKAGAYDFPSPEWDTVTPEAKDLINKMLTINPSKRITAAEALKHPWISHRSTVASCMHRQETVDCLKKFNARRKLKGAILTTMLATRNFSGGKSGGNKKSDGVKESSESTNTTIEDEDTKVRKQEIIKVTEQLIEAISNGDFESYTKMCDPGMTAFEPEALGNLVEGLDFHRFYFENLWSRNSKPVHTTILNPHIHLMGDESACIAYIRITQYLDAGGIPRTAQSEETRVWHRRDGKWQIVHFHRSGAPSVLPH
Chain of PKC-β1 (P05771 whole entry): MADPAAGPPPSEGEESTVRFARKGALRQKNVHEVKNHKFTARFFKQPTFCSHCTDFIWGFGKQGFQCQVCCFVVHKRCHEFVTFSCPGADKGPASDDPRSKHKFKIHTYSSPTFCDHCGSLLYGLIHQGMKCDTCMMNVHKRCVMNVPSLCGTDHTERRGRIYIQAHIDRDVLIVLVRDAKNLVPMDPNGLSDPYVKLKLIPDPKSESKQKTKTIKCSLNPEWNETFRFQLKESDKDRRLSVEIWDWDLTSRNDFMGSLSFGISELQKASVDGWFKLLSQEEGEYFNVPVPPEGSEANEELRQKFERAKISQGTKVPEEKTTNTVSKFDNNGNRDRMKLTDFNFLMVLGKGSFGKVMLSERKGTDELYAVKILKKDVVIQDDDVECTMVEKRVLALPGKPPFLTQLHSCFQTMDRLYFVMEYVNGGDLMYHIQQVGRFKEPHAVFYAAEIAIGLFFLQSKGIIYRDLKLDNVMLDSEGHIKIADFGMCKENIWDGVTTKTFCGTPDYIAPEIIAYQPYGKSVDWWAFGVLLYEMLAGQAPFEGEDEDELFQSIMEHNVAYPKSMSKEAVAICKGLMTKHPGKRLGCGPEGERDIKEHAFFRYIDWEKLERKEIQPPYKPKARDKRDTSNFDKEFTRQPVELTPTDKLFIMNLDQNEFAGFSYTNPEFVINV
Chain of FYN (P06241 whole entry): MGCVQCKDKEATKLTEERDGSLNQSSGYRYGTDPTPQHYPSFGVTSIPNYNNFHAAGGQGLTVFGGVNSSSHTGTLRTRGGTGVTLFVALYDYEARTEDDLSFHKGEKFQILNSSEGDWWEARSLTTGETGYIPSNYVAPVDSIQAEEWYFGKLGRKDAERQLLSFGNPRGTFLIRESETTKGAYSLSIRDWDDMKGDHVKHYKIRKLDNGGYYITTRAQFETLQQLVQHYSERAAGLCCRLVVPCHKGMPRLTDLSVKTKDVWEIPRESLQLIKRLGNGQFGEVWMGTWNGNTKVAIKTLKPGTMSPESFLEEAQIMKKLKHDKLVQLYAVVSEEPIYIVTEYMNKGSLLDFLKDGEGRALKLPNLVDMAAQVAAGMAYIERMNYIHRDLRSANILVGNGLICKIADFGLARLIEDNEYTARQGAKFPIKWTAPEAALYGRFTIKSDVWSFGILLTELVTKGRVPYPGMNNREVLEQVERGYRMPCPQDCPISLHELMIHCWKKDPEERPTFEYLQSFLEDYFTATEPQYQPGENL
Chain of PYK2 (Q14289 whole entry): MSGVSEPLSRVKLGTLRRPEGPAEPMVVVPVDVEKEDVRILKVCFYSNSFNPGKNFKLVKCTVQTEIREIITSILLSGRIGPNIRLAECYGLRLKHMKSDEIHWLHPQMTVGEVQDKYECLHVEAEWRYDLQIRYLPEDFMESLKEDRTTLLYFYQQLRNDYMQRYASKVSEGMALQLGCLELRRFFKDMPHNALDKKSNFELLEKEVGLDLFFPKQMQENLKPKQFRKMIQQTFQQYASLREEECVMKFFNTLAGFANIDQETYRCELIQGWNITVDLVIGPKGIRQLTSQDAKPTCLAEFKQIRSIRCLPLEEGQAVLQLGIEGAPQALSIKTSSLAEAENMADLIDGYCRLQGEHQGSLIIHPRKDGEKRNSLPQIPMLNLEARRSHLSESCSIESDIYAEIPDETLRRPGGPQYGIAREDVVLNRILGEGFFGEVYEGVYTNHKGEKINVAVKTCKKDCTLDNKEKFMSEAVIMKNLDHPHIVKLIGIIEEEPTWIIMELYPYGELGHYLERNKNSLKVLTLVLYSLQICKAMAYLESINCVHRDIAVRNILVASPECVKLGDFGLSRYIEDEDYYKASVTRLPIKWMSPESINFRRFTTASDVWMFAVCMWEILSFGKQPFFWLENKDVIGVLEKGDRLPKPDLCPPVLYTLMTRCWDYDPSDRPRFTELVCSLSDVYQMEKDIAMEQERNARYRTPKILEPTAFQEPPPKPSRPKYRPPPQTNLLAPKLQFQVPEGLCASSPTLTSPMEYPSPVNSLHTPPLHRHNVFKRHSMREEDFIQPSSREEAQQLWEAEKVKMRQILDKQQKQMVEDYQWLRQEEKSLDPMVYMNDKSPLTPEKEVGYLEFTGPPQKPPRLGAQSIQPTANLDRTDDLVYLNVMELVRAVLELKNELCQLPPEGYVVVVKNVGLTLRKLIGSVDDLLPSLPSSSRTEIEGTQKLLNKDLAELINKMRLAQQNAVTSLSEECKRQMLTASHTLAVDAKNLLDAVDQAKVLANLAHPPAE
Chain of CK1-γ1 (Q9HCP0 whole entry): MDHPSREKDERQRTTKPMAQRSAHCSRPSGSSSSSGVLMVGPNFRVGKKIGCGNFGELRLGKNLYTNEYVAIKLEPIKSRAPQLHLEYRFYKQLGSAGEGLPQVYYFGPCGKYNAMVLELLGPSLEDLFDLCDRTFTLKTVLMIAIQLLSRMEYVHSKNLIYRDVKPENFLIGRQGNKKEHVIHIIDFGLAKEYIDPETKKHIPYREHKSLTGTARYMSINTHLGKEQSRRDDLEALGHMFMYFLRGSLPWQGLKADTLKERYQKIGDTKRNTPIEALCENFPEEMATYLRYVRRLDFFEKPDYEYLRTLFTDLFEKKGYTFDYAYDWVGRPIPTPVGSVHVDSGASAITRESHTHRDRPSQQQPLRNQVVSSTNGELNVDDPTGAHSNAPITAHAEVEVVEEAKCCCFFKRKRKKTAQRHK

Compound	inhibition at 0.1 µM (CK1-γ1) [%]	inhibition at 1 µM (CK1-γ1) [%]	inhibition at 0.1 µM (TBK1) [%]	inhibition at 1 µM (TBK1) [%]	inhibition at 0.1 µM (FES) [%]	inhibition at 1 µM (FES) [%]	inhibition at 0.1 µM (P38δ) [%]	inhibition at 1 µM (P38δ) [%]	inhibition at 0.1 µM (FYN) [%]	inhibition at 1 µM (FYN) [%]	inhibition at 0.1 µM (PYK2) [%]	inhibition at 1 µM (PYK2) [%]	inhibition at 0.1 µM (SRC) [%]	inhibition at 1 µM (SRC) [%]	inhibition at 0.1 µM (PKC-α) [%]	inhibition at 1 µM (PKC-α) [%]	inhibition at 0.1 µM (PKC-β1) [%]	inhibition at 1 µM (PKC-β1) [%]	inhibition at 0.1 µM (CAMK2α) [%]	inhibition at 1 µM (CAMK2α) [%]	further results
COc1cc(-c2cc(-c3ccc(N4CCNCC4)cc3)cnc2C)cc(OC)c1OC [Compound 10, 1-(4-(6-methyl-5-(3,4,5-trimethoxyphenyl)pyridin-3-yl)phenyl)piperazine]	1	6	1	4	7	9	1	-1	8	36	1	5	8	23	2	3	0	1	-1	-1	inhibition at 0.1 µM (CDK1/cyclinB): 2%; inhibition at 1 µM (CDK1/cyclinB): 3%; inhibition at 0.1 µM (PIM-2): 0%; inhibition at 1 µM (PIM-2): 0%; inhibition at 0.1 µM (ABL1; [1]): 56%; inhibition at 0.1 µM (ABL1; [2]): 56%; inhibition at 1 µM (ABL1; [1]): 93%; inhibition at 1 µM (ABL1; [2]): 93%
COc1cc(-c2cc(-c3ccc(N4CCNCC4)cc3)cnc2N)cc(OC)c1OC [Compound 15, 5-(4-(piperazin-1-yl)phenyl)-3-(3,4,5-trimethoxyphenyl)pyridin-2-amine]	4	17	6	23	3	4	2	1	40	79	10	14	40	81	1	6	0	0	1	-1	inhibition at 0.1 µM (CDK1/cyclinB): -1%; inhibition at 1 µM (CDK1/cyclinB): 0%; inhibition at 0.1 µM (PIM-2): 0%; inhibition at 1 µM (PIM-2): 0%; inhibition at 0.1 µM (ABL1; [2]): 77%; inhibition at 1 µM (ABL1; [2]): 84%
